Measurements reported in patent publication US12064426B2, “Selective inhibitors of ROCK1 and ROCK2 protein kinases and uses thereof” (GENOSCO Inc., priority 2021, dated 2024).

How the values were obtained:
[1] = target: T1, Recombinant ROCK2 (amino acids 5-554) (Homo sapiens, UniProt O75116); test: ROCK inhibition assay, LANCE Ultra TR-FRET kinase assay (ROCK2); type: biochemical; conditions: 4 μM ATP, 50 nM ULight-CREBtide substrate
T1 construct: ROCK2 (amino acids 5-554); by word order, ROCK2 from SignalChem
T1 sequence (O75116 5-554): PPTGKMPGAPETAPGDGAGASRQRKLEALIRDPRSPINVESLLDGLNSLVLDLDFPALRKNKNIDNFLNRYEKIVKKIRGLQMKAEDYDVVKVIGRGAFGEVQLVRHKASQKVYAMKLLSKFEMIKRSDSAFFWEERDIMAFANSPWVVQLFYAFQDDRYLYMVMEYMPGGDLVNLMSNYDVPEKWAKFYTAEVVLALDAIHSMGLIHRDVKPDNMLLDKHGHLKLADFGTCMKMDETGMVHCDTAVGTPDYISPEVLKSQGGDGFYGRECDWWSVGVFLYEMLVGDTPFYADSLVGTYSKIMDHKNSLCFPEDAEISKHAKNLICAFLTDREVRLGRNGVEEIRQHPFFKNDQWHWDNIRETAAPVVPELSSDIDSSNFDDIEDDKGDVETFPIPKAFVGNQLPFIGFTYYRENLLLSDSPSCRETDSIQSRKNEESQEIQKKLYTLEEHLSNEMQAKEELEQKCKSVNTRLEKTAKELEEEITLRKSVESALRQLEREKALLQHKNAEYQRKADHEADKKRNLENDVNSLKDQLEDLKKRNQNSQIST
How it was run: (§1)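 Reaction buffer 50 mM HEPES pH 7.5, 10 mM MgCl2, 1 mM EGTA, 2 mM DTT; kinase, ULight-CREBtide (50 nM) and ATP (ROCK1 1 μM, ROCK2 4 μM) react 1 h at room temperature. Phospho-Ser133 detected by europium antibody after 10 mM EDTA stop, TR-FRET ex 320 nm; IC50 calculated.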

[2] = target: T2, Recombinant ROCK1 (amino acids 1-477) (Homo sapiens, UniProt Q13464); test: ROCK inhibition assay, LANCE Ultra TR-FRET kinase assay (ROCK1); type: biochemical; conditions: 1 μM ATP, 50 nM ULight-CREBtide substrate
T2 construct: Recombinant ROCK1 (amino acids 1-477); by word order, ROCK1 from Carna Biosciences
T2 sequence (Q13464 1-477): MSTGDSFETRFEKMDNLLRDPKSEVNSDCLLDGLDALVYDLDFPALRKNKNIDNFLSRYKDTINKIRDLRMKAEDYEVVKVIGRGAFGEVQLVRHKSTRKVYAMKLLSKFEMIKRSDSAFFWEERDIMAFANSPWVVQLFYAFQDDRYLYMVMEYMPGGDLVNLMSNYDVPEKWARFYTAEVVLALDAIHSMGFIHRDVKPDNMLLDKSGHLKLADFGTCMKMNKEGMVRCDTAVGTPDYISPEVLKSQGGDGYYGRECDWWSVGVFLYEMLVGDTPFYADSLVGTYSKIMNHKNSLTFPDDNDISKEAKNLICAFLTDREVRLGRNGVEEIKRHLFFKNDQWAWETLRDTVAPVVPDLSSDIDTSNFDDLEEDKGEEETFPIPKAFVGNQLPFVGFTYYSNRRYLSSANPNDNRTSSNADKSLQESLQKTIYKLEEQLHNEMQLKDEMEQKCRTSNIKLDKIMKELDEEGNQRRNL
How it was run: as §1

NCC(c1cccc(C(N)=O)c1)n1cnc2cc(-c3cn[nH]c3Cl)ccc2c1=O (stereo not shown) [Compound 508]
IC50 [1]: 100 to 500 nM
IC50 [2]: > 501 nM

CNC(=O)c1cccc([C@@H](C)n2cnc3cc(-c4cn[nH]c4Br)ccc3c2=O)c1 [Compound 509, (R)-3-(1-(7-(5-bromo-1H-pyrazol-4-yl)-4-oxoquinazolin-3(4H)-yl)ethyl)-N-methylbenzamide]
IC50 [1]: < 10 nM
IC50 [2]: 11 to 100 nM

[2H]C([2H])([2H])NC(=O)c1cccc(Cn2cnc3cc(-c4cn[nH]c4Br)ccc3c2=O)c1 [Compound 511]
IC50 [1]: < 10 nM
IC50 [2]: 11 to 100 nM

CNC(=O)c1cccc(Cn2ccc3cc(-c4cn[nH]c4Br)ccc3c2=O)c1 [Compound 512]
IC50 [1]: < 10 nM
IC50 [2]: 11 to 100 nM

[2H]C([2H])([2H])NC(=O)c1cccc(Cn2ccc3cc(-c4cn[nH]c4Br)ccc3c2=O)c1 [Compound 513]
IC50 [1]: < 10 nM
IC50 [2]: 11 to 100 nM

C[C@H](c1cccc(C(=O)NC2COC2)c1)n1cnc2cc(-c3cn[nH]c3Br)ccc2c1=O [Compound 514]
IC50 [1]: < 10 nM
IC50 [2]: 11 to 100 nM

C[C@H](c1cccc(C(=O)NC2CC2)c1)n1cnc2cc(-c3cn[nH]c3Br)ccc2c1=O [Compound 515]
IC50 [1]: < 10 nM
IC50 [2]: 11 to 100 nM

C[C@H](c1cccc(C(=O)NCc2ccc(F)nc2)c1)n1cnc2cc(-c3cn[nH]c3Br)ccc2c1=O [Compound 516]
IC50 [1]: < 10 nM
IC50 [2]: < 10 nM

C[C@H](c1cccc(C(=O)Nc2ccc(F)cc2)c1)n1cnc2cc(-c3cn[nH]c3Br)ccc2c1=O [Compound 517]
IC50 [1]: < 10 nM
IC50 [2]: 11 to 100 nM

CNC(=O)c1cccc([C@@H](C)n2cnc3cc(-c4cn[nH]c4N)ccc3c2=O)c1 [Compound 518]
IC50 [1]: < 10 nM
IC50 [2]: 11 to 100 nM

[2H]C([2H])([2H])NC(=O)c1cccc([C@@H](C)n2cnc3cc(-c4cn[nH]c4N)ccc3c2=O)c1 [Compound 519]
IC50 [1]: < 10 nM
IC50 [2]: 11 to 100 nM

C[C@H](c1cccc(C(=O)NC2COC2)c1)n1cnc2cc(-c3cn[nH]c3N)ccc2c1=O [Compound 520]
IC50 [1]: < 10 nM
IC50 [2]: 11 to 100 nM

C[C@H](c1cccc(C(=O)NC2CC2)c1)n1cnc2cc(-c3cn[nH]c3N)ccc2c1=O [Compound 521]
IC50 [1]: < 10 nM
IC50 [2]: 11 to 100 nM

C[C@H](c1cccc(C(=O)NCc2ccc(F)nc2)c1)n1cnc2cc(-c3cn[nH]c3N)ccc2c1=O [Compound 522]
IC50 [1]: < 10 nM
IC50 [2]: < 10 nM

Cc1[nH]ncc1-c1ccc2c(c1)NCN([C@H](CO)c1cccc(Cl)c1)C2=O [Compound 523, (S)-3-(1-(3-chlorophenyl)-2-hydroxyethyl)-7-(5-methyl-1H-pyrazol-4-yl)-2,3-dihydroquinazolin-4(1H)-one]
IC50 [1]: 100 to 500 nM
IC50 [2]: > 501 nM

O=C1c2ccc(-c3cn[nH]c3C(F)(F)F)cc2NCN1[C@H](CO)c1cccc(Cl)c1 [Compound 524]
IC50 [1]: 100 to 500 nM
IC50 [2]: > 501 nM

O=C1c2ccc(-c3cn[nH]c3Cl)cc2NCN1[C@H](CO)c1cccc(Cl)c1 [Compound 525]
IC50 [1]: 100 to 500 nM
IC50 [2]: > 501 nM

Cn1nccc1-c1ccc2c(c1)NCN([C@H](CO)c1cccc(Cl)c1)C2=O [Compound 526]
IC50 [1]: > 500 nM
IC50 [2]: > 501 nM

COc1cccc([C@@H](CO)N2CNc3cc(-c4ccncc4)ccc3C2=O)c1 [Compound 527]
IC50 [1]: 100 to 500 nM
IC50 [2]: > 501 nM

COc1cccc([C@@H](CO)N2CNc3cc(-c4cn[nH]c4C(F)(F)F)ccc3C2=O)c1 [Compound 528]
IC50 [1]: 100 to 500 nM
IC50 [2]: > 501 nM

COc1cccc([C@@H](CO)N2CNc3cc(-c4cnoc4C)ccc3C2=O)c1 [Compound 529]
IC50 [1]: > 500 nM
IC50 [2]: > 501 nM

COc1cccc([C@@H](CO)N2CNc3cc(-c4cn[nH]c4Cl)ccc3C2=O)c1 [Compound 530]
IC50 [1]: 10 to 100 nM
IC50 [2]: > 501 nM

COc1cccc([C@@H](CO)N2CNc3cc(-c4ccnn4C)ccc3C2=O)c1 [Compound 531]
IC50 [1]: 100 to 500 nM
IC50 [2]: > 501 nM

CNC(=O)c1cccc(Cn2cc(C(C)O)c3cc(-c4c[nH]nc4C(F)(F)F)ccc3c2=O)c1 (stereo not shown) [Compound 532, 3-((4-(1-hydroxyethyl)-1-oxo-6-(3-(trifluoromethyl)-1H-pyrazol-4-yl)isoquinolin-2(1H)-yl)methyl)-N-methylbenzamide]
IC50 [1]: < 10 nM
IC50 [2]: < 10 nM

CC(O)c1cn(Cc2cccc(C(=O)NC3CC3)c2)c(=O)c2ccc(-c3c[nH]nc3C(F)(F)F)cc12 (stereo not shown) [Compound 533]
IC50 [1]: 10 to 100 nM
IC50 [2]: 101 to 500 nM

CC(O)c1cn(Cc2cccc(C(=O)NC3COC3)c2)c(=O)c2ccc(-c3c[nH]nc3C(F)(F)F)cc12 (stereo not shown) [Compound 534]
IC50 [1]: < 10 nM
IC50 [2]: 11 to 100 nM

CNC(=O)c1cccc(Cn2cc(C(C)O)c3cc(-c4c[nH]nc4C(F)F)ccc3c2=O)c1 (stereo not shown) [Compound 535]
IC50 [1]: < 10 nM
IC50 [2]: < 10 nM

CC(O)c1cn(Cc2cccc(C(=O)NC3CCOCC3)c2)c(=O)c2ccc(-c3c[nH]nc3C(F)F)cc12 (stereo not shown) [Compound 536]
IC50 [1]: < 10 nM
IC50 [2]: < 10 nM

CNC(=O)c1cccc(Cn2cc(C(C)O)c3cc(-c4conc4C)ccc3c2=O)c1 (stereo not shown) [Compound 537]
IC50 [1]: < 10 nM
IC50 [2]: 11 to 100 nM

Cc1nocc1-c1ccc2c(=O)n(Cc3cccc(C(=O)NCc4ccc(F)nc4)c3)cc(C(C)O)c2c1 (stereo not shown) [Compound 538]
IC50 [1]: < 10 nM
IC50 [2]: < 10 nM

Cc1nocc1-c1ccc2c(=O)n(Cc3cccc(C(=O)NCc4ccccc4)c3)cc(C(C)O)c2c1 (stereo not shown) [Compound 539]
IC50 [1]: < 10 nM
IC50 [2]: 11 to 100 nM

CNC(=O)c1cccc(Cn2cc(C(C)O)c3cc(-c4ccnn4C)ccc3c2=O)c1 (stereo not shown) [Compound 540]
IC50 [1]: < 10 nM
IC50 [2]: 11 to 100 nM

CNC(=O)c1cccc(Cn2cc(C(C)O)c3cc(-c4c[nH]nc4Cl)ccc3c2=O)c1 (stereo not shown) [Compound 541]
IC50 [1]: < 10 nM
IC50 [2]: 11 to 100 nM

CC(O)c1cn(Cc2cccc(C(=O)NCCN(C)C)c2)c(=O)c2ccc(-c3c[nH]nc3Cl)cc12 (stereo not shown) [Compound 542]
IC50 [1]: < 10 nM
IC50 [2]: < 10 nM

CC(O)c1cn(Cc2cccc(C(=O)NCCc3ccccn3)c2)c(=O)c2ccc(-c3c[nH]nc3Cl)cc12 (stereo not shown) [Compound 543]
IC50 [1]: < 10 nM
IC50 [2]: < 10 nM

CNC(=O)c1cccc(Cn2cc(C(C)O)c3cc(-c4c[nH]nc4N)ccc3c2=O)c1 (stereo not shown) [Compound 544]
IC50 [1]: < 10 nM
IC50 [2]: 11 to 100 nM

CNC(=O)c1cccc(Cn2cc(C(C)O)c3cc(-c4ccnc(N)c4)ccc3c2=O)c1 (stereo not shown) [Compound 545]
IC50 [1]: < 10 nM
IC50 [2]: 11 to 100 nM

CNC(=O)c1cccc(Cn2cc(CCO)c3cc(-c4cn[nH]c4C(F)(F)F)ccc3c2=O)c1 [Compound 546, 3-((4-(2-hydroxyethyl)-1-oxo-6-(5-(trifluoromethyl)-1H-pyrazol-4-yl)isoquinolin-2(1H)-yl)methyl)-N-methylbenzamide]
IC50 [1]: < 10 nM
IC50 [2]: 11 to 100 nM

CNC(=O)c1cccc(Cn2cc(CC(C)O)c3cc(-c4cn[nH]c4C(F)(F)F)ccc3c2=O)c1 (stereo not shown) [Compound 547]
IC50 [1]: < 10 nM
IC50 [2]: 11 to 100 nM

CNC(=O)c1cccc(Cn2cc(CCN(C)C)c3cc(-c4cn[nH]c4C(F)(F)F)ccc3c2=O)c1 [Compound 548]
IC50 [1]: < 10 nM
IC50 [2]: < 10 nM

CNC(=O)c1cccc(C(C)n2cc(CCO)c3cc(-c4cn[nH]c4C(F)(F)F)ccc3c2=O)c1 (stereo not shown) [Compound 549]
IC50 [1]: < 10 nM
IC50 [2]: 11 to 100 nM

CNC(=O)c1cccc(Cn2cc(CCO)c3cc(-c4cn[nH]c4Cl)ccc3c2=O)c1 [Compound 550]
IC50 [1]: < 10 nM
IC50 [2]: 11 to 100 nM

CNC(=O)c1cccc(C(C)n2cc(CCO)c3cc(-c4cn[nH]c4Cl)ccc3c2=O)c1 (stereo not shown) [Compound 551]
IC50 [1]: < 10 nM
IC50 [2]: 11 to 100 nM

CNC(=O)c1cccc(Cn2cc(CCO)c3cc(-c4conc4C)ccc3c2=O)c1 [Compound 552]
IC50 [1]: 10 to 100 nM
IC50 [2]: 101 to 500 nM

CNC(=O)c1cccc(C(C)n2cc(CCO)c3cc(-c4conc4C)ccc3c2=O)c1 (stereo not shown) [Compound 553]
IC50 [1]: 10 to 100 nM
IC50 [2]: 101 to 500 nM

CNC(=O)c1cccc(C(C)n2cc(CCO)c3cc(-c4cn[nH]c4F)ccc3c2=O)c1 (stereo not shown) [Compound 554]
IC50 [1]: < 10 nM
IC50 [2]: 11 to 100 nM

CNC(=O)c1cccc(Cn2cc(CCO)c3cc(-c4cn[nH]c4F)ccc3c2=O)c1 [Compound 555]
IC50 [1]: < 10 nM
IC50 [2]: 11 to 100 nM

CNC(=O)c1cccc(Cn2cc(CCO)c3cc(-c4ccnc(N)c4)ccc3c2=O)c1 [Compound 558]
IC50 [1]: 10 to 100 nM
IC50 [2]: < 10 nM

CNC(=O)c1cccc(Cn2cc(CC(C)O)c3cc(-c4cn[nH]c4C(F)F)ccc3c2=O)c1 (stereo not shown) [Compound 559]
IC50 [1]: < 10 nM
IC50 [2]: 11 to 100 nM

CNC(=O)c1cccc(Cn2cc(CC(C)O)c3cc(-c4cn[nH]c4Cl)ccc3c2=O)c1 (stereo not shown) [Compound 560]
IC50 [1]: < 10 nM
IC50 [2]: < 10 nM

CNC(=O)c1cccc(Cn2cc(CC(C)O)c3cc(-c4c[nH]nc4N)ccc3c2=O)c1 (stereo not shown) [Compound 562]
IC50 [1]: < 10 nM
IC50 [2]: 11 to 100 nM

CNC(=O)c1cccc(C(C)n2cc(CCN(C)C)c3cc(-c4cn[nH]c4C(F)(F)F)ccc3c2=O)c1 (stereo not shown) [Compound 563]
IC50 [1]: < 10 nM
IC50 [2]: 11 to 100 nM

CNC(=O)c1cccc(Cn2cc(CCN(C)C)c3cc(-c4cn[nH]c4Cl)ccc3c2=O)c1 [Compound 564]
IC50 [1]: < 10 nM
IC50 [2]: 11 to 100 nM

CNC(=O)c1cccc(C(C)n2cc(CCN(C)C)c3cc(-c4cn[nH]c4Cl)ccc3c2=O)c1 (stereo not shown) [Compound 565]
IC50 [1]: < 10 nM
IC50 [2]: 11 to 100 nM

CNC(=O)c1cccc(Cn2cc(CCN(C)C)c3cc(-c4ccnn4C)ccc3c2=O)c1 [Compound 566]
IC50 [1]: < 10 nM
IC50 [2]: 11 to 100 nM

CNC(=O)c1cccc(Cn2cc(CCN(C)C)c3cc(-c4c[nH]nc4N)ccc3c2=O)c1 [Compound 567]
IC50 [1]: < 10 nM
IC50 [2]: 11 to 100 nM
